How the values were obtained:
[1] = test system: human stem cell derived neurons; assay: Cell viability of human stem cell derived neurons treated with multi-component formulations (Hoechst/propidium iodide, ArrayScan VTI); type: cell-based
Procedure: Cryopreserved human stem cell derived neurons obtained from PhoenixSongs Biologicals were thawed and plated at a density of 12000 cells per well in a 384-well PDL/laminin coated plate. The neurons were maintained in a humidified environment at 37° C. with 5% CO2 for six days with periodic media changes before experimental procedures were performed. […] Cells were dosed in triplicate with 10-point dose response curves to determine if there was any protective effect (improved survival of cells) or toxicity with the test compounds versus the untreated cells. A positive control (chlorpromazine) was also used to assess cytotoxicity response in these cells. After a three-day incubation with test compositions, the cells were stained with Hoechst and propidium iodide and read on an ArrayScan VTI to determine cell viability. Results were normalized to vehicle and graphed using GraphPad Prism. […]

[2] = test system: primary chicken neurons; assay: MTT cell viability assay in primary chicken neurons; type: cell-based; conditions: for concentration above which cell viability declined: compared to vehicle control, FIG. 5, FIG. 6; for Cell viability, Mean: no MSM nor FDP, 48 h
Procedure: Fertilized chicken eggs were stored under turning at 37.8° C. and 55% humidity until embryonic day eight. Embryos were transferred to a plastic dish and decapitated. Both hemispheres were removed, collected and cleaned from any loose tissue. Hemispheres were mechanically dissociated and 4.8×10^4 cells per well (96-well plates) were seeded in a volume of 160 μL. The cell culture medium consisted of Dubelcco's Modified Eagle's Medium with […], 5% Nu Serum, 0.01% gentamycin and 2 mM L-glutamine. Cultures were maintained at 37° C., 95% humidity and 5% CO2.
Test compositions and vehicle controls were applied to chicken neurons at day-in-vitro 8 for 48 h. On day-in-vitro 10 the viability of neurons was determined according to MTT cell viability assay using a plate reader (570 nm). That assay allows the measurement of the mitochondrial dehydrogenase activity, which reduces yellow MTT to dark blue formazan crystals. Since this reaction is catalyzed in living cells only, this assay is used for the determination of cell viability. MTT solution was added to each well in a final concentration of 0.5 mg/mL. After two hours the MTT-containing medium is aspired. Cells were lysed in 3% SDS and the formazan crystals were dissolved in isopropanol/HCl. Optical density was measured with a plate reader at 570 nm. Cell survival rage was expressed as optical density (OS). Values were calculated as percent of control values (vehicle control, which is medium).
Using the same protocol as in Example 2, primary chicken neurons were treated with varying concentrations of methylsulfonylmethane and/or fructose 1,6-diphosphate. Cell viability was determined with the MTT assay.
Using the protocol of Example 2, a formulation containing methylsulfonylmethane (0.1 μM), D-fructose 1,6-diphosphate trisodium salt hydrate (1 μM), and rutin (0.001 μM) was tested for cell viability in primary chicken neurons. Vehicle control (medium) and methylsulfonylmethane with fructose 1,6-diphosphate compositions were also tested. The results appear in FIG. 12.

`CN(C)CCCN1c2ccccc2Sc2ccc(Cl)cc21` [Chlorpromazine, chlorpromazine] was tested, and the IC50 ([1]; Homo sapiens, Neuron, 72 h, three-day incubation, formulations in medium with MSM 0.1 μM and FDP 1 μM, chlorpromazine without MSM and FDP, read-out: IC50 for Cell Loss) was 3.8 µM and the “neuron cell toxicity / safety (in words)” value ([1]; at comparable concentrations) was “relatively high neuron cell toxicity”.
With `O=C(COP(=O)(O)O)[C@@H](O)[C@H](O)[C@H](O)COP(=O)(O)O` [FDP, fructose 1,6-diphosphate] the “concentration above which cell viability declined” value [2] was “above 0.1 mM”.
`CS(C)(=O)=O` [MSM, methylsulfonylmethane] was tested, and the “concentration above which cell viability declined” value [2] was “above 5 mM”.
In the case of `C[C@@H]1O[C@@H](OC[C@H]2O[C@@H](Oc3c(-c4ccc(O)c(O)c4)oc4cc(O)cc(O)c4c3=O)[C@H](O)[C@@H](O)[C@@H]2O)[C@H](O)[C@H](O)[C@H]1O` [Rutin, quercetin-3-O-rutinoside], the “Cell viability, Mean” value ([2]; rutin 0.001 (μM), vehicle alone) is reported as 96.7% of control, the “Cell viability, Mean” value ([2]; rutin 0.01, vehicle alone) is reported as 99.7% of control and the “Cell viability, Mean” value ([2]; rutin 0.1, vehicle alone) is reported as 98.1% of control. The “Cell viability, Mean” value ([2]; rutin 1, vehicle alone) was 97.7% of control and the “Cell viability, Mean” value ([2]; rutin 10, vehicle alone) was 100.2% of control.
